Data reported in US20110009335A1, “Anticancer Treatments” (priority 2008, published 2011).
Starred links: 1 amine or outer side, 2 acyl side, 3 side chain; linkers in the order of their positions; H or OH if unused. Positions of bridges follow the written chain, without caps; N, C: chain ends. Non-standard residues stand in square brackets, D forms with d. Residues, ends and D or L forms follow the SMILES beside them. *: point of attachment. X1 = CC[C@H](C)[C@@H](N[*:1])[C@@H](O)CC(=O)O[C@H](C(=O)[C@H](C)C(=O)[*:2])C(C)C; NMeY = CN[C@@H](Cc1ccc(O)cc1)C(=O)O; dNMeL = CN[C@H](CC(C)C)C(=O)O; Pyruvoyl = CC(=O)C(=O)*

Tests used:
[1] = system: AML and ALL samples from pediatric patients; settings: de novo or relapsed ALL and AML; cited from earlier work
[2] = system: CAKI-1 human renal tumor xenograft; experiment: Aplidine with sunitinib, CAKI-1 xenograft in athymic nude mice (Example 2); type: in vivo; settings: doses and schedules tested
Protocol: (§1) Female athymic nude mice (Harlan Sprague Dawley, Madison, Wis.) were utilized for all experiments. Mice were implanted with tumor fragments or a cell suspension when mice were 5 weeks of age. Animals were housed in ventilated rack caging, 5 mice per cage, with food and water ad libitum. The mice were acclimated for 1 week prior to being implanted with tumor fragments or cell suspensions.
Cells from in vitro passage 4-20 were implanted SC into study mice: 5×10^6 cells/mouse in 0.2 ml 50% Matrigel/50% medium without antibiotics or serum, using a 23 G needle and 1 cc syringe. Bacterial cultures were performed on aliquots of the cells prepared for implantation.
(§2) Tumor measurements were determined as disclosed in Example 1.
Body weights were recorded on treatment days and when tumor sizes were measured. In those days wherein the two drugs were administered the same day, the combination therapy groups were treated by co-administering the two drugs at the same time, with no attempt to sequence the treatments. […]
(§3) Tumor size measurements were recorded twice weekly from the treatment initiation until the termination of the study.
(§4) Mean, standard deviation and standard error of the mean were determined for tumor volume for all animal groups at all assessments. […]

[3] = system: ALL-MOLT4 cells; settings: mechanistic studies; cited from earlier work
[4] = system: HepG2 human hepatoma xenograft; experiment: Aplidine with sorafenib, HepG2 xenograft in athymic nude mice (Example 6); type: in vivo; settings: for % Inhibition G2: aplidine 0.06 mg/kg/day; for antitumor activity as single agent (monotherapy): doses tested; for % Inhibition G4: sorafenib 30 mg/kg/day; for % Inhibition G3: sorafenib 60 mg/kg/day
Protocol: Female athymic nude mice (Harlan Sprague Dawley, Madison, Wis.) were utilized for all experiments. Mice were implanted with a cell suspension when mice were 6-8 weeks of age. Animals were housed in ventilated rack caging with food and water ad libitum. The mice were acclimated for at least 5 days prior to tumor implantation.
The tumor model used in this study was HepG2, which is a human hepatoma cell line obtained from the ATCC (Manassas, Va.). HepG2 cells were grown in MEM medium, 10% FBS, 1.5 g/l sodium bicarbonate, 0.1 mM non-essential amino acids, 1.0 mM sodium pyruvate and 2 mM L-glutamine. Cells from in vitro passage 4-20 were implanted SC into study mice: 5×10^6 cells/mouse in 0.2 ml 50% Matrigel/50% medium without antibiotics or serum, using a 23 G needle and 1 cc syringe. Bacterial cultures were performed on aliquots of the cells prepared for implantation.
Tumor measurements were determined as disclosed in Example 1. When tumor growth was within an average size range of 130±44 mg (mean±SD), mice were randomized into the treatment and control groups based on tumor weight by using LabCat® In Life module V 8.0 SP1 tumor tracking and measurement software.
The treatment of HepG2-tumor-bearing mice was initiated on DPI (Day Post Implantation) 19. Body weights were recorded on treatment days and when tumor sizes were measured. In those days wherein the two drugs were administered the same day, the combination therapy groups were treated by co-administering the two drugs at the same time, with no attempt to sequence the treatments.
Aplidine was provided in the form of vials of lyophilized aplidine powder which was reconstituted in Cremophor EL/ethanol/water (CEW) 15/15/70 to a concentration of 0.5 mg/ml. The aplidine solution in CEW was diluted in 0.9% Saline to the dosing formulation concentrations, being the final proportion of CEW of 0.18/0.18/0.84.
as §3
(§5) Mean, standard deviation and standard error of the mean were determined for tumor volume for all animal groups at all assessments. Student's t test was performed on tumor volumes at each measurement day, including at the end of the study, to determine whether there were any statistically significant differences between combination treatment groups and single monotherapy treatment groups.
The definition and criteria for the evaluation of potentiation and the degree of additivity for the combination therapy were the same as those disclose in Example 1.

[5] = system: MRI-H-121 human renal tumor xenograft; experiment: Aplidine with sorafenib, MRI-H-121 xenograft in athymic nude mice (Example 1); type: in vivo; settings: for antitumor activity as single agent (monotherapy): doses and schedules tested, sorafenib 60 or 30 mg/kg/day
Protocol: as §1
Tumor measurements were determined by using Vernier calipers. The formula to calculate volume for a prolate ellipsoid was used to estimate tumor volume (mm^3) from 2-dimensional tumor measurements: Tumor volume (mm^3)=[L×W^2]÷2, where L is the length and it is the longest diameter in mm, and W is the width and it is the shortest diameter in mm of a tumor. Assuming unit density, volume was converted to weight (i.e., 1 mm^3=1 mg).
(§6) Body weights were recorded on treatment days and when tumor sizes were measured. In those days wherein the two drugs were administered the same day, the combination therapy groups were treated by co-administering the two drugs at the same time, with no attempt to sequence the treatments.
Aplidine was provided in the form of vials of lyophilized aplidine powder which was reconstituted in Cremophor EL/ethanol/water (CEW) 15/15/70 to a concentration of 0.5 mg/ml. Then the aplidine solution in CEW was diluted in 0.9% Saline to the dosing formulation concentrations, being the final proportion of CEW of 0.18/0.18/0.84.
as §3, §5
Determine the % of tumor growth inhibition, as 100−% T/C, for each of the drugs administered as monotherapy at the doses used in the combinations. % T/C was obtained by comparing the mean tumor weight in the treatment groups (T) to the mean tumor weight in the control group (C) (T/C×100%). • 2. The two scores were added together to determine the “expected response” if each agent produced the same response as it did when administered as monotherapy. • 3. This “expected response” was subtracted from the % of tumor growth inhibition determined for the combination therapy group: • a. A negative number meant that the effect of combining the two drugs was less than additive. • b. If the resulting number was close to zero, the effect of combining the two drugs was determined as additive. • c.

[6] = system: MRI-H-121 human renal tumor xenograft; experiment: Aplidine with sunitinib, MRI-H-121 xenograft in athymic nude mice (Example 2); type: in vivo; settings: doses and schedules tested
Protocol: as §1, §2, §6
(§7) Aplidine was provided in the form of vials of lyophilized aplidine powder which was reconstituted in Cremophor EL/ethanol/water (CEW) 15/15/70 to a concentration of 0.5 mg/ml. The aplidine solution in CEW was diluted in 0.9% Saline to the dosing formulation concentrations, being the final proportion of CEW of 0.18/0.18/0.84. […]
as §3, §4

[7] = system: A498 human renal tumor xenograft; experiment: Aplidine with sunitinib, A498 xenograft in athymic nude mice (Example 2); type: in vivo; settings: doses tested; sunitinib 40 mg/kg
Protocol: as §1, §2, §6, §7, §3, §4

[8] = G2: aplidine 0.060 mg/kg/day IP
[9] = aplidine 0.040 and/or sorafenib 30 mg/kg/day
[10] = aplidine 0.060 and/or sorafenib 60 mg/kg/day

| SMILES | antitumor activity as single agent (monotherapy) [4] | % T/C on day 14 [5, 9] [%] | % T/C on day 16 [5, 9] [%] | % T/C on day 20 [5, 9] [%] | % T/C on day 27 [5, 9] [%] | % T/C on day 30 [5, 9] [%] | % T/C on day 34 [5, 9] [%] | % T/C on day 37 [5, 9] [%] | % T/C on day 41 [5, 9] [%] | % T/C on day 44 [5, 9] [%] | % T/C on day 48 [5, 9] [%] | % T/C on day 14 [5, 10] [%] | % T/C on day 16 [5, 10] [%] | % T/C on day 20 [5, 10] [%] | % T/C on day 23 [5, 10] [%] | % T/C on day 27 [5, 10] [%] | % T/C on day 30 [5, 10] [%] | % T/C on day 34 [5, 10] [%] | % T/C on day 37 [5, 10] [%] | % T/C on day 41 [5, 10] [%] | other results |
| --- | --- | --- | --- | --- | --- | --- | --- | --- | --- | --- | --- | --- | --- | --- | --- | --- | --- | --- | --- | --- | --- |
| CC[C@H](C)[C@H]1NC(=O)[C@@H](NC(=O)[C@@H](CC(C)C)N(C)C(=O)[C@@H]2CCCN2C(=O)C(C)=O)[C@@H](C)OC(=O)[C@H](Cc2ccc(OC)cc2)N(C)C(=O)[C@@H]2CCCN2C(=O)[C@H](CC(C)C)NC(=O)[C@@H](C)C(=O)[C@H](C(C)C)OC(=O)C[C@@H]1O [aplidine, dehydrodidemnin B] (Pyruvoyl-P[dNMeL]T[X1]LP[NMeY](Me); ester 3-C) | inactive | 103.5 | 104.0 | 85.1 | 94.1 | 86.4 | 91.0 | 85.6 | 92.5 | 93.9 | 94.9 | 102.0 | 97.5 | 81.5 | 73.9 | 98.4 | 88.5 | 75.8 | 75.0 | 88.3 | concentration with in vitro cytotoxic activity [1]: 5 nM; antitumor activity as single agent (monotherapy) [2]: inactive; VEGF secretion [3]: block VEGF secretion; % T/C on day 19 [4, 8]: 95.9%; % T/C on day 22 [4, 8]: 97.0%; % T/C on day 26 [4, 8]: 66.7%; % T/C on day 30 [4, 8]: 76.9%; % T/C on day 33 [4, 8]: 91.0%; % Inhibition G2 ([4]; day 19): 4.1%; % Inhibition G2 ([4]; day 22): 3.0%; % Inhibition G2 ([4]; day 26): 33.3%; % Inhibition G2 ([4]; day 30): 23.1%; % Inhibition G2 ([4]; day 33): 9.0%; % T/C on day 23 [5, 9]: 85.9%; % T/C on day 44 [5, 10]: 90.2%; % T/C on day 48 [5, 10]: 95.5%; antitumor activity as single agent (monotherapy) [5]: refractory; antitumor activity as single agent (monotherapy) [6]: refractory; antitumor activity as single agent (monotherapy) [7]: no effect |
| CNC(=O)c1cc(Oc2ccc(NC(=O)Nc3ccc(Cl)c(C(F)(F)F)c3)cc2)ccn1 [sorafenib] | inactive | 99.7 | 85.6 | 62.1 | 78.7 | 72.0 | 66.1 | 72.5 | 79.5 | 77.6 | 76.1 | 103.8 | 85.0 | 66.5 | 71.7 | 70.4 | 75.6 | 69.6 | 71.1 | 74.7 | % T/C on day 19 ([4]; G3: sorafenib 60 mg/kg/day PO): 88.8%; % T/C on day 22 ([4]; G3: sorafenib 60 mg/kg/day PO): 78.7%; % T/C on day 26 ([4]; G3: sorafenib 60 mg/kg/day PO): 60.1%; % T/C on day 30 ([4]; G3: sorafenib 60 mg/kg/day PO): 61.8%; % T/C on day 33 ([4]; G3: sorafenib 60 mg/kg/day PO): 66.2%; % T/C on day 19 ([4]; G4: sorafenib 30 mg/kg/day PO): 101.4%; % T/C on day 22 ([4]; G4: sorafenib 30 mg/kg/day PO): 123.5%; % T/C on day 26 ([4]; G4: sorafenib 30 mg/kg/day PO): 91.3%; % T/C on day 30 ([4]; G4: sorafenib 30 mg/kg/day PO): 100.9%; % Inhibition G4 ([4]; day 22): −23.5%; % Inhibition G4 ([4]; day 26): 8.7%; % Inhibition G4 ([4]; day 30): −0.9%; % Inhibition G4 ([4]; day 33): 9.6%; % Inhibition G3 ([4]; day 19): 11.2%; % Inhibition G3 ([4]; day 26): 39.9%; % Inhibition G3 ([4]; day 30): 38.2%; % Inhibition G3 ([4]; day 33): 33.8%; % T/C on day 44 [5, 10]: 71.0%; % T/C on day 48 [5, 10]: 71.8%; antitumor activity as single agent (monotherapy) [5]: did not reach the NCI criteria for activity |
